Structures are written as SMILES.

The subject of the first experiment is PDE4. The experiment in a line: PDE4 inhibition, scintillation proximity assay (SPA).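 On PDE4 Inhibitory Activity (concentration for the inhibition rate of 50%): A below 100 nM B 100 to below 1000 nM C 1000 nM or more.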 Format: biochemical. To be noted: scintillation proximity assay (SPA); evaluated as classes A, B, C; read-out: PDE4 Inhibitory Activity (concentration for the inhibition rate of 50%). An outline of the steps:
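Compound pre-diluted 1:10 in 50 mM Tris-HCl pH 7.4, 8.3 mM MgCl2, 1.7 mM EGTA, 3 mg/mL BSA, then incubated with PDE4 and [2,8-3H]-cAMP for 120 min at room temperature. Product captured on ZnSO4-containing YSi-SPA beads for 15 min; radioactivity counted against no-enzyme blank and DMSO control.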
A general note: SPA uses beads or plates that emit light when radiolabelled molecules are held near them.
Regarding `COCCOC(c1cc(-c2nccs2)c2oc(N3CC4CCC(C3)N4)nc2c1)C(F)(F)F` (centres unmarked) [Example 147, 2-(3,8-Diazabicyclo[3.2.1]octan-3-yl)-7-(thiazol-2-yl)-5-(2,2,2-trifluoro-1-(2-methoxyethoxy)ethyl)benzo[d]oxazole], the IC50 is less than 100 nM.

For the molecule `CN(CCO)C(=O)c1cc(-c2nccs2)c2oc(N3CC4CCC(C3)N4)nc2c1OC(F)(F)F` [Example 193, 2-(3,8-Diazabicyclo[3.2.1]octan-3-yl)-N-(2-hydroxyethyl)-N-methyl-7-(thiazol-2-yl)-4-(trifluoromethoxy)benzo [d]oxazole-5-carboxamide], the IC50 is less than 100 nM.

In the case of `N#CCOc1cc(-c2nccs2)c2oc(N3CC4CCC(C3)N4)nc2c1` [Example 73, 2-((2-(3,8-Diazabicyclo[3.2.1]octan-3-yl)-7-(thiazol-2-yl)benzo[d]oxazol-5-yl)oxy)acetonitrile], the IC50 was less than 100 nM.

In the case of `FC(F)(F)Oc1cc(-c2nccs2)c2oc(N3CC4CCCC(C3)N4)nc2c1` [Example 55, 2-(3,9-Diazabicyclo[3.3.1]nonan-3-yl)-7-(thiazol-2-yl)-5-(trifluoromethoxy)benzo[d]oxazole], the IC50 was less than 100 nM. As to `FC(F)(F)c1cc(-c2nccs2)c2oc(N3CC4CCC(C3)N4)nc2c1` [Example 51, 2-(3,8-Diazabicyclo[3.2.1]octan-3-yl)-7-(thiazol-2-yl)-5-(trifluoromethyl)benzo[d]oxazole], the IC50 is less than 100 nM.

On to `Clc1ccc(-c2nccs2)c2oc(N3CC4CC(C3)N4)nc12` [Example 37, 2-(3,6-Diazabicyclo[3.1.1]heptan-3-yl)-4-chloro-7-(thiazol-2-yl)benzo[d]oxazole], for which the IC50 is less than 100 nM. Still for that read-out and setting: for `CC(C)c1cc(-c2nccs2)c2oc(N3CC4CCCC(C3)N4)nc2c1` [Example 24, 2-(3,9-Diazabicyclo[3.3.1]nonan-3-yl)-5-isopropyl-7-(thiazol-2-yl)benzo[d]oxazole] the value was less than 100 nM; for `FC(F)Oc1ccc(-c2nccs2)c2oc(N3CC4CC(C3)N4)nc12` [Example 278, 2-(3,6-Diazabicyclo[3.1.1]heptan-3-yl)-4-(difluoromethoxy)-7-(thiazol-2-yl)benzo[d]oxazole], less than 100 nM; for `FC(F)(F)Oc1cc(-c2nccs2)c2oc(N3CC4CC(C3)N4)nc2c1` [Example 56, 2-(3,6-Diazabicyclo[3.1.1]heptan-3-yl)-7-(thiazol-2-yl)-5-(trifluoromethoxy)benzo[d]oxazole], less than 100 nM. `CCOC(=O)c1ccc(-c2nccs2)c2oc(N3CC4CCCC(C3)N4)nc12` [Example 114, Ethyl 2-(3,9-diazabicyclo[3.3.1]nonan-3-yl)-7-(thiazol-2-yl) benzo[d]oxazole-4-carboxylate]: the IC50 was less than 100 nM. For `FC(F)(F)Oc1c(Cl)cc(-c2nccs2)c2oc(N3CC4COCC(C3)N4)nc12` [Example 4, 7-(5-Chloro-7-(thiazol-2-yl)-4-(trifluoromethoxy)benzo [d]oxazol-2-yl)-3-oxa-7,9-diazabicyclo[3.3.1]nonane], the IC50 was less than 100 nM. Turning to `CN(C)C(=O)c1cc(-c2nccs2)c2oc(N3CC4CCC(C3)N4)nc2c1` [Example 94, 2-(3,8-Diazabicyclo[3.2.1]octan-3-yl)-N,N-dimethyl-7-(thiazol-2-yl)benzo[d]oxazole-5-carboxamide], the IC50 is less than 100 nM. On to `OC(c1cc(-c2nccs2)c2oc(N3CC4CCC(C3)N4)nc2c1OC(F)(F)F)C(F)F` (centres unmarked) [Example 275, 1-(2-(3,8-Diazabicyclo[3.2.1]octan-3-yl)-7-(thiazol-2-yl)-4-(trifluoromethoxy)benzo[d]oxazol-5-yl)-2,2-difluoroethan-1-ol], for which the IC50 was less than 100 nM. For `CC(=O)Nc1cc(-c2nccs2)c2oc(N3CC4CC(C3)N4)nc2c1` [Example 49, N-(2-(3,6-diazabicyclo[3.1.1]heptan-3-yl)-7-(thiazol-2-yl)benzo[d]oxazol-5-yl)acetamide], the IC50 was in the range of 100 to 1000 nM. Same read-out and setting: for `FC(F)(F)Oc1ccc(-c2nccs2)c2oc(N3CC4CCC(C3)N4)nc12` [Example 28, 2-(3,8-Diazabicyclo[3.2.1]octan-3-yl)-7-(thiazol-2-yl)-4-(trifluoromethoxy)benzo[d]oxazole] the value was less than 100 nM; for `CNC(=O)c1cc(-c2nccs2)c2oc(N3CC4CCC(C3)N4)nc2c1` [Example 100, 2-(3,8-Diazabicyclo[3.2.1]octan-3-yl)-N-methyl-7-(thiazol-2-yl)benzo[d]oxazole-5-carboxamide], less than 100 nM; for `CC(=O)c1cc(-c2nccs2)c2oc(N3CC4CC(C3)N4)nc2c1` [Example 109, 1-(2-(3,6-Diazabicyclo[3.1.1]heptan-3-yl)-7-(thiazol-2-yl)benzo[d]oxazol-5-yl)ethan-1-one], less than 100 nM.

With `Cc1ccc(-c2nccs2)c2oc(N3CC4CC(C3)N4)nc12` [Example 26, 2-(3,6-Diazabicyclo[3.1.1]heptan-3-yl)-4-methyl-7-(thiazol-2-yl)benzo[d]oxazole], the IC50 was less than 100 nM.

Take `O=C(O)c1ccc(-c2nccs2)c2oc(N3CC4CCC(C3)N4)nc12` [Example 238, 2-(3,8-Diazabicyclo[3.2.1]octan-3-yl)-7-(thiazol-2-yl) benzo[d]oxazole-4-carboxylic acid]: the IC50 is less than 100 nM. Take `Oc1cc(-c2nccs2)c2oc(N3CC4CC(C3)N4)nc2c1` [Example 64, 2-(3,6-Diazabicyclo[3.1.1]heptan-3-yl)-7-(thiazol-2-yl)benzo[d]oxazol-5-ol]: the IC50 is less than 100 nM. Same read-out and setting: for `CC(O)C(F)(F)Oc1ccc(-c2cscn2)c2oc(N3CC4CCC(C3)N4)nc12` (centres unmarked) [Example 310, 1-((2-(3,8-Diazabicyclo[3.2.1]octan-3-yl)-7-(thiazol-4-yl)benzo[d]oxazol-4-yl)oxy)-1,1-difluoropropan-2-ol] the value was less than 100 nM; for `COC(=O)c1ccc(-c2nccs2)c2oc(N3CC4CCC(C3)N4)nc12` [Example 237, Methyl 2-(3,8-diazabicyclo[3.2.1]octan-3-yl)-7-(thiazol-2-yl) benzo[d]oxazole-4-carboxylate], less than 100 nM. Still for that read-out and setting: for `COC(C)(c1cc(-c2nccs2)c2oc(N3CC4CC(C3)N4)nc2c1OC(F)(F)F)C(F)(F)F` (centres unmarked) [Example 214, 2-(3,6-Diazabicyclo[3.1.1]heptan-3-yl)-7-(thiazol-2-yl)-5-(1,1,1-trifluoro-2-methoxypropan-2-yl)-4-(trifluoromethoxy)benzo[d]oxazole] the value was less than 100 nM; for `CC(C)(O)C(F)(F)Oc1ccc(-c2cscn2)c2oc(N3CC4CC(C3)N4)nc12` [Example 307, 1-((2-(3,6-Diazabicyclo[3.1.1]heptan-3-yl)-7-(thiazol-4-yl)benzo[d]oxazol-4-yl)oxy)-1,1-difluoro-2-methylpropan-2-ol], less than 100 nM; for `COCCOC(c1cc(-c2nccs2)c2oc(N3CC4CC(C3)N4)nc2c1)C(F)(F)F` (centres unmarked) [Example 154, 2-(3,6-Diazabicyclo[3.1.1]heptan-3-yl)-7-(thiazol-2-yl)-5-(2,2,2-trifluoro-1-(2-methoxyethoxy)ethyl)benzo[d]oxazole], less than 100 nM.

Staying with this experiment, now noted: scintillation proximity assay; class symbols; read-out: PDE4 Inhibitory Activity.
Turning to `CC(C)C(O)C(F)(F)Oc1ccc(-c2nccs2)c2oc(N3CC4CC(C3)N4)nc12` (centres unmarked) [Example 362, 1-((2-(3,6-diazabicyclo [3.1.1]heptan-3-yl)-7-(thiazol-2-yl)benzo[d]oxazol-4-yl)oxy)-1,1-difluoro-3-methylbutan-2-ol], the IC50 was less than 100 nM.

Source of the values: patent publication US10669283B2, “Compound and pharmacologically acceptable salt thereof” (MEIJI SEIKA PHARMA CO., LTD., priority 2016, dated 2020).
